# Experimental data from US20080199489A1, “SKIN TREATMENT FORMULATIONS AND METHOD” (priority 2007, published 2008).
# Experiments:
# [1] = tested on: chronic rosacea; test: Example 2: treatment of a patient with chronic rosacea; type: in vivo, human; conditions: person, topical
# Description: A person suffered from chronic rosacea. Medical practitioner proscribed regular use of a steroidal cortisone anti-inflammatory cream. […] Patient was concerned about side effects of long term cortisone application. […] Improvement however could not be maintained even with regular treatment several times weekly.
# [2] = tested on: basal cell carcinoma and pre-cancerous inflammation; test: Example 1: treatment of a patient with basal cell carcinoma and pre-cancerous inflammation; type: in vivo, human
# Description: The treatment procedure comprises application of each of the above described formulations in the order of cleansing with the water broth, activating with both the water broth and the activating serum, treatment with the mask formulation that entraps active ingredients against the affected skin and finally sealing and protecting the treated area with the cream. The affected area is first washed using the water broth. Activating serum is then applied to the skin. The water broth solution is put into the dispensing cup of aerosol generating device such as sold under the brand name Dermoxyzone Nebulizing Nanoparticle Infuser™, which infuses the nanoparticle sizes of the ozonated water broth into the epidermal layer. Absorption is optimized due to the activating serum's ability to pull moisture into the epidermis in greater amounts than could be absorbed without application of the activating serum. The Gel is not completely removed before applying the mask. The gel is wiped down with a cotton pad, leaving a residue on the skin. The mask is then applied over the residual gel covered area of the skin. The mixing serum and the powdered mask base are blended in a ratio of one to one, by volume, to form the mask just prior to use. For the treatment of one cheek for example, one tablespoon each of the powder and mixing serum are typically used. […]
# [3] = Ozone output of ozonized formulations tested with a commercial ozone sensor; type: physicochemical; conditions: added to seaweed-containing ozonized formulations
# Protocol: Cholecalciferol, vitamin D3, also known as the sunshine vitamin, aids in tissue regeneration and healing. […] For this reason it was determined that a certain amount of vitamin D3 increases the effectiveness of formulations containing seaweeds, especially those containing callophycus serratus.
# The mask is used after the water broth cleansing and activating serum activation steps. As for the serum the inventor has observed a synergistic efficacy by using the combination of treatments. Also as for the serum the exact mechanism is yet to be understood, but the mask provides yet a third matrix for the preparation, storage and application of the active ingredients. As for the formulations previously described the mask is prepared from a selection of ingredients form each of the defined categories of teas, Algaes and seaweeds, herbal plant extracts and oils, flower extracts, fruit extracts, vegetable extracts, butters and oils, and finally other additives as indicated in the formulation lists below. […] The mask is prepared from freeze dried and powdered extracts of the indicated ingredients. The water broth described above is also an ingredient in the mask. The other ingredients are added as preservatives, solvents, and viscosity control agents and are not part of the active ingredients, but rather are a delivery system. […]
smiles,measurement,setting,value
"C[C@]12CCC(=O)C=C1CC[C@@H]1[C@@H]2C(=O)C[C@@]2(C)[C@H]1CC[C@]2(O)C(=O)CO [1% cortisone, cortisone]",effect on rosacea inflammation,[1],controlled most inflammation outbreaks
N#N [liquid nitrogen],adverse effect of treatment,[2]; conventional treatment by medical practitioner,scarring
same,outcome of cancer / cancerous tissue,[2]; person,cancerous tissue reappeared within a few months of treatment
C=C1CC[C@H](O)C/C1=C/C=C1\CCC[C@]2(C)[C@@H]([C@H](C)CCCC(C)C)CC[C@@H]12 [Cholecalciferol],ozone output / amount of ozone released from ozonated formulations,[3],increased the ozone output
same,ozone output / amount of ozone released from ozonated formulations,[3]; listed as cholecalciferol,increased significantly
